Patent US11872298B2, “Cosmetic use of arthrofactin” (L'OREAL, priority 2016, dated 2024)
*1 amine or outer side, *2 acyl side, *3 side chain or, on linkers, in order; H or OH if unused. Where a SMILES comes first, the peptide text is derived from it. Bridges are numbered along the chain shown (N, C = ends). [ ]: non-standard residue; d: D form. X1 = CC(C)CCCCCCCCC[C@H](CC(=O)[*:1])O[*:2]

Test system: genes associated with moisturization in keratinocytes
Assay: Expression of genes associated with moisturization in keratinocytes cultivated in vitro (quantitative PCR)
Assay type: cell-based, human
Conditions: 0.002 mg/L and 0.01 mg/L in water
Protocol: K266 human epidermic keratinocytes were seeded in wells (50,000 cells/well) and cultivated in a Dermalife K medium (Lifeline LL-007) for 3 days at 37° C. and 5% of CO2. At the end of incubation, the culture medium was replaced by a test medium (K Dermalife supplemented with 1.5 mM CaCl2) containing or not containing (control) the mixture of arthrofactins obtained in example 1 in the form of a powder diluted to 0.1% in water or references (retinoic acid at 0.1 μM and 1 μM, or retinol at 10 μM). The cells were then incubated for 24 hours.
In parallel, normal human keratinocytes (NHK, 01.12) were seeded in wells (50,000 cells/well) and cultivated in a COMPLETE KGM medium (KGM BULLETKIT, LONZA, CC-3111) for 3 days at 37° C. and 5% of CO2. […]
The quantification of RNA and quality control were analyzed using LabChip GX (Perkin Elmer). Reverse transcription (RT) of RNA into cDNA was carried out using the Quantitect® inverse transcription kit (QIAGEN) following the manufacturer's recommendations. […]
The expression of selected transcripts was then analyzed by quantitative PCR using a LightCycler 480 Real-Time PCR System 384-well plate system (Roche) using the SYBR® Green incorporation technique (Roche). […]

CC(C)CCCCCCCCC[C@@H]1CC(=O)N[C@@H](CCC(=O)O)C(=O)N[C@@H](CC(C)C)C(=O)N[C@H](CC(C)C)C(=O)N[C@@H](C(C)C)C(=O)N[C@@H](CC(=O)O)C(=O)N[C@H](CC(C)C)C(=O)N[C@@H](CC(C)C)C(=O)O1 [Sodium Surfactin] (EL[dL]VD[dL]L; linker N-C via X1)
Expression of genes associated with moisturization in keratinocytes: lower expression
